The source of these data is patent US11369615B2, “Agent for improving mitochondrial dysfunction, preventative or therapeutic agent for diseases or symptoms caused by mitochondrial dysfunction, and applications therefor” (JICHI MEDICAL UNIVERSITY, priority 2017, dated 2022).

Structures can show the parent of a compound that is named as a salt.

For series [1], the system named is KCMC10 cells derived from a patient with Leigh syndrome. The series can be described thus: Oxidative stress test (BSO-induced cell death), KCMC10 cells. The series is classed as cell-based, human. The note with it: BSO plus agent 1 μM, 48 hours after addition. The source says: (§1) In mitochondrial dysfunction, for example, ATP production is damaged and/or oxidative stress increases, with the result that apoptosis of cells is induced. Because of this, individuals having mitochondrial dysfunction are reported to be less tolerant to oxidative stress, compared to normal individuals (Shrader W D et al., Bioorg Med Chem Lett., Jun. 15, 2011, Vol. 21 (12), p. 3693-8, doi: 10.1016/j.bmc1.2011.04.085. electronically published on Apr. 24, 2011, PubMed PMID: 21600768). Then, oxidative stress was given to the skin fibroblasts of individual patients mentioned above to induce apoptosis. Under the conditions, compounds of the drug library were each administered to the cells. In this manner, a primary screening was carried out. Then, candidate pharmaceutical agents selected by the primary screening were subjected to a secondary screening, which is an in-vitro evaluation test such as a mitochondrial function evaluation test and a microarray expression analysis.
(§2) The oxidative stress test is a known pharmaceutical agent screening method, which was carried out under the conditions where cell death was induced by addition of L-buthionine-(S,R)-sulfoximine (BSO) (Arce P M et al., ACS Med Chem Lett., May 31, 2011, Vol. 2 (8), p. 608-13, doi: 10.1021/m1200095w. eCollection, Aug. 11, 2011, PubMed PMID: 24900356; PubMed Central PMCID: PMC4018135). BSO inhibits synthesis of glutathione serving as an antioxidant in the cells to deplete glutathione, raising the level of active oxygen within the cells. The procedure of the test is as follows. The cells to be used in the test were seeded in a 96-well plate for cell culture so as to satisfy a concentration of 5,000 cells/well and 80 μL medium/well and cultured in a CO2 incubator (37° C., 5% CO2) for 24 hours. Twenty four hours after the culture, BSO and each of the pharmaceutical agents (final concentration of 1 μM) of the drug library were together added to the cells within the wells. Forty eight hours after the addition, survival rates were determined. The survival rates were determined by measuring absorbance of formazan generated by use of cell count reagent SF (Nacalai Tesque, Inc.). As a positive control compound, idebenone (Non Patent Literature 1) approved as a therapeutic agent for Leber's hereditary optic neuritis in Europe, was used in the same concentration.
(§3) An oxidative stress test was carried out by using three fibroblast cell lines derived from patients with a mitochondrial disease and provided in 1-2. The pharmaceutical agent showing the survival rate equal to or more than that of idebenone, a positive control compound, was determined to be effective. The results of oxidative stress test of pharmaceutical agents of the drug library to KCMC10 cells are shown in FIG. 2; the results of oxidative stress test of pharmaceutical agents of the drug library to ME54 cells are shown in FIG. 3; and the results of oxidative stress test of pharmaceutical agents of the drug library to ME110 cells are shown in FIG. 4.

The subject of series [2] is ME54 cells derived from a patient with Leigh syndrome. The series can be described thus: Oxidative stress test (BSO-induced cell death), ME54 cells. It is filed as cell-based, human. To be noted: BSO plus agent 1 μM, 48 hours after addition.
Source text: as §1, §2, §3

The conditions of series [3]: stated as known; cited from earlier work.
In series [4] the test system is ME110 cells derived from a patient with MELAS. The series can be described thus: Oxidative stress test (BSO-induced cell death), ME110 cells. The series is classed as cell-based, human. To be noted: BSO plus agent 1 μM, 48 hours after addition.
Source text: as §1, §2, §3

With `CN1C[C@@H]2c3ccccc3Oc3ccc(Cl)cc3[C@H]2C1` [Pharmaceutical agent No. 105, Asenapine maleate], the “survival rate equal to or more than that of idebenone (determined to be effective)” value (from here on “survival rate equal to or more than that”) in series [1], in series [2] and in series [4] was “effective” each time. Further, the “ability to pass through the blood-brain barrier” value (shortened to “ability”) in series [3] was “known to be able to pass through the blood-brain barrier”.

As to `CN1CC2c3ccccc3Oc3ccc(Cl)cc3C2C1` (stereo not drawn) [(I-2)], the “ability” value in series [3] is given as “known to be able to pass through the blood-brain barrier”.

Consider `CN1CCN(CCCN2c3ccccc3Sc3ccc(Cl)cc32)CC1` [Pharmaceutical agent No. 35, Prochlorperazine dimaleate], for which the “survival rate equal to or more than that” value in series [1], in series [2] and in series [4] was “effective” throughout. In series [3], the “ability” value is on record as “known to be able to pass through the blood-brain barrier”.

For `c1ccc2c(c1)Nc1ccccc1S2` [Pharmaceutical agent No. 129, Phenothiazine], the “survival rate equal to or more than that” value in series [1], in series [2] and in series [4] was “effective” in each case. The “ability” value in series [3] is reported as “known to be able to pass through the blood-brain barrier”.

Take `CN1CCc2cccc3c2C1Cc1ccc(O)c(O)c1-3` (stereo not drawn) [(I-1)]: in series [3], the “ability” value is listed as “known to be able to pass through the blood-brain barrier”.

For the molecule `CN(C)CCCN1c2ccccc2Sc2ccccc21` [Pharmaceutical agent No. 56, Promazine hydrochloride], the “survival rate equal to or more than that” value in series [1], in series [2] and in series [4] was “effective” throughout. Moreover, the “ability” value in series [3] is given as “known to be able to pass through the blood-brain barrier”.

With `Cc1cc2c(s1)Nc1ccccc1N=C2N1CCN(C)CC1` [Pharmaceutical agent No. 118, Olanzapine], the “survival rate equal to or more than that” value in series [1], in series [2] and in series [4] was “effective” in each case.
